Like-named read-outs stand apart in the source and are kept apart here.
Legend:
[1] = Description: Subjects were to be dosed twice a day (every 12 hours) for 6 days and on Day 7 they were to be dosed once. All treatment groups could be run in parallel or sequentially. Subjects were allocated based on the randomization list. Randomization numbers were assigned sequentially as subjects entered into groups on the basis of their order of entry into the study. Subjects who withdrew for reasons unrelated to safety may have been replaced. Blood samples were obtained at prespecified intervals in order to characterize pharmacokinetics.
[2] = Dacey and Sande 1974; cited from earlier work
[3] = Multiple-dose study of sulopenem delivered intravenously: plasma pharmacokinetics; format: in vivo, human; conditions: for AUC(0-inf) / AUC(0-t) / Cmax / half-life / Tmax / CL renal: human, plasma, iv; for Tmax: median [range]; for Rac: accumulation ratio
Description: The pharmacokinetics of sulopenem delivered intravenously were studied in a randomized, investigator-blind, subject-blind, sponsor-open, placebo-controlled, multiple-dose study of sulopenem. There were 5 cohorts dosed. Each subject was dosed for up to 14 days. Each cohort consisted of 10 subjects.

Porphyromonas gingivalis = conditions: Ednie and Appelbaum 2009; cited from earlier work
[4] = 800 mg, intravenous 800 mg (3 h BID), Day 1
[5] = 800 mg, intravenous 800 mg (3 h BID), Day 14
[6] = 1200 mg, intravenous 1200 mg (1 h BID), Day 1
[7] = 1200 mg, intravenous 1200 mg (1 h BID), Day 14
[8] = 1200 mg, intravenous 1200 mg ([…] BID), Day 1
[9] = 1200 mg, intravenous 1200 mg ([…] BID), Day 14
[10] = 1600 mg, intravenous 1600 mg (1.5 h BID), Day 1
[11] = 1600 mg, intravenous 1600 mg (1.5 h BID), Day 14
[12] = 2000 mg, intravenous 2000 mg (1.5 h BID), Day 1

For `CCOC(C)(C)C(=O)OCOC(=O)C1=C(S[C@H]2CC[S@@+]([O-])C2)S[C@@H]2[C@@H]([C@@H](C)O)C(=O)N12` [Compound III-1b], the “AUC of sulopenem on Day 7 compared with Day 1” value ([1]; administered alone through the oral route) was “lower than that on Day 1” and the “AUC of sulopenem on Day 7 compared with Day 1” value ([1]; co-administered with probenecid) was “increased on Day 7 beyond that seen on Day 1”.
In the case of `CCCN(CCC)S(=O)(=O)c1ccc(C(=O)O)cc1` [probenecid], the “effect on concentrations of β-lactam compounds in the cerebrospinal fluid” value [2] is listed as “increase the concentrations of β-lactam compounds in the cerebrospinal fluid”.
For `C[C@@H](O)[C@H]1C(=O)N2C(C(=O)O)=C(S[C@H]3CC[S@@+]([O-])C3)S[C@H]12` [sulopenem], the AUC(0-inf) [3, 4] was 22400 ng·h/mL, the AUC(0-t) [3, 4] was 22300 ng·h/mL and the Cmax [3, 4] was 7270 ng/mL. The half-life [3, 4] was 0.825 h, the Tmax [3, 4] was 2 h and the AUC(0-inf) [3, 5] was 26500 ng·h/mL. It also gave an AUC(0-t) [3, 5] of 26400 ng·h/mL, a CL renal [3, 5] of 257 mL/min and a Cmax [3, 5] of 8970 ng/mL. It also gave a half-life [3, 5] of 0.889 h, a Tmax [3, 5] of 2 h and an AUC(0-inf) [3, 6] of 42300 ng·h/mL. The AUC(0-t) [3, 6] was 42200 ng·h/mL, the Cmax [3, 6] was 32500 ng/mL and the half-life [3, 6] was 1.04 h. It also gave a Tmax [3, 6] of 1 h, an AUC(0-inf) [3, 7] of 41400 ng·h/mL and an AUC(0-t) [3, 7] of 41300 ng·h/mL. For the same compound, the CL renal [3, 7] was 245 mL/min, the Cmax [3, 7] was 30700 ng/mL and the half-life [3, 7] was 1.05 h. For the same compound, the Tmax [3, 7] was 1 h, the AUC(0-inf) [3, 8] was 41900 ng·h/mL and the AUC(0-t) [3, 8] was 41800 ng·h/mL. It also gave a Cmax [3, 8] of 16600 ng/mL, a half-life [3, 8] of 1.12 h and a Tmax [3, 8] of 2.25 h. It also gave an AUC(0-inf) [3, 9] of 34600 ng·h/mL, an AUC(0-t) [3, 9] of 34500 ng·h/mL and a CL renal [3, 9] of 313 mL/min. It also gave a Cmax [3, 9] of 13500 ng/mL, a half-life [3, 9] of 1.01 h and a Tmax [3, 9] of 2 h. It also gave an AUC(0-inf) [3, 10] of 67300 ng·h/mL, an AUC(0-t) [3, 10] of 67100 ng·h/mL and a Cmax [3, 10] of 40100 ng/mL. For the same compound, the half-life [3, 10] was 1.04 h, the Tmax [3, 10] was 1.5 h and the AUC(0-inf) [3, 11] was 54900 ng·h/mL. It also gave an AUC(0-t) [3, 11] of 54700 ng·h/mL, a CL renal [3, 11] of 327 mL/min and a Cmax [3, 11] of 31800 ng/mL. The half-life [3, 11] was 1.2 h, the Tmax [3, 11] was 1.25 h and the AUC(0-inf) [3, 12] was 90300 ng·h/mL. The AUC(0-t) [3, 12] was 90100 ng·h/mL, the Cmax [3, 12] was 51500 ng/mL and the half-life [3, 12] was 1.12 h. The Tmax [3, 12] was 1.5 h, the Rac ([3]; intravenous 800 mg (3 h BID), Day 14) was 1.15 (29) and the Rac ([3]; intravenous 1200 mg (1 h BID), Day 14) was 0.928 (17). The Rac ([3]; intravenous 1200 mg ([…] BID), Day 14) was 0.841 (9), the Rac ([3]; intravenous 1600 mg (1.5 h BID), Day 14) was 0.791 (9) and the “activity against Porphyromonas gingivalis” value (Porphyromonas gingivalis) was “active”.

Reference: US12109197B2, “Combinations of β-lactam compounds and probenecid and uses thereof” (Iterum Therapeutics International Limited, priority 2018, dated 2024)
